Source: PMC7998563 (Viruses, 2021)

Molecular target: T1, HCMV core nuclear egress complex (core NEC), pUL50-pUL53 (Human herpesvirus 5 strain AD169, UniProt P16791+P16794)
T1 construct: gene NEC2; pUL50 His-tagged, pUL53 coated on plate; heterodimer
Test: ELISA-type pUL50-pUL53 interaction inhibition assay, anti-His-HRP detection
Format: binding

T1 sequence (P16791 1-181): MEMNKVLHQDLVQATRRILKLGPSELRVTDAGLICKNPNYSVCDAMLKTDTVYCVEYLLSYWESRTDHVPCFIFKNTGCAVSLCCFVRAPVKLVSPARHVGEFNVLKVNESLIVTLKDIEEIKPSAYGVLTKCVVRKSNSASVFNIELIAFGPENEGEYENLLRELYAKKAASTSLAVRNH
T1 sequence (P16794 50-292): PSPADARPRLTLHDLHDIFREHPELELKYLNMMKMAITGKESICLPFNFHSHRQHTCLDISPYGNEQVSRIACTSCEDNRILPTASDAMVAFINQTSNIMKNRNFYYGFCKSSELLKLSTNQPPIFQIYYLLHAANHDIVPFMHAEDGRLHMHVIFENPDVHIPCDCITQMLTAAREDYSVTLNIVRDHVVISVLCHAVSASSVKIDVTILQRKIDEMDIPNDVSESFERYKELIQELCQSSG

O=C(O)c1ccccc1-c1c2cc(Br)c(=O)[c]([Hg+])c-2oc2cc(O)c(Br)cc12 [P10G08, merbromin]
IC50: 38 nM
